Laboratory results published in patent US20120149080A1, “YEAST PRODUCTION CULTURE FOR THE PRODUCTION OF BUTANOL” (Butamax(TM) Advanced Biofuels LLC, priority 2010, published 2012).

Assays:
[1] = system: Issatchenkia orientalis PNY0660; assay: Glucose utilization rate in high cell density culture in corn test medium; type: cell-based; settings: for Glucose utilization rate: 30 C., 0 h to 6 h, 2.7 gdcw/L, corn test medium
Method: Strain Issatchenkia orientalis PNY0660, was derived from ATCC 20381 strain that was previously referred to as Candida acidothermophilium. Strain PNY0660 was plated from a freezer vial onto YPD agar (Teknova, Hollister, Calif.; Cat. #Y1000) and incubated overnight at 30° C. Cells from the YPD plate were inoculated into a 50 ml pre-culture of YPD broth (Teknova, Hollister, Calif.; Cat. #Y5000) with an initial OD600 of 0.06 to 0.08, and this culture was grown for 5 hours in an air shaker at 30° C. An aliquot of the pre-culture was inoculated into 200 ml of YPD broth with an initial OD600 of 0.6, and this culture was incubated with aeration at 30° C. for approximately 17 hours. The optical density of the culture was determined, the culture was centrifuged, and the sugar consumption rate was determined in corn test medium. Corn test medium contained 0.2% casamino acids and 2% glucose and 100 mM MES buffer pH 5.25 and per liter contained (i) salts: ammonium sulfate 5.0 g, potassium phosphate monobasic 2.8 g, and magnesium sulfate heptahydrate 0.5 g, (ii) vitamins: biotin (D−) 0.40 mg, Ca D(+) panthotenate 8.00 mg, myo-inositol 200.00 mg, pyridoxol hydrochloride 8.00 mg, p-aminobenzoic acid 1.60 mg, riboflavin 1.60 mg, folic acid 0.02 mg, niacin 30.0 mg, and thiamine 30 mg; and (iii) trace elements: EDTA (Titriplex 1117) 99.38 mg, zinc sulphate heptahydrate 29.81 mg, manganese chloride dehydrate 5.57 mg, cobalt(II)chloride hexahydrate 1.99 mg, copper(II)sulphate pentahydrate 1.99 mg, Di-sodium molybdenum dehydrate 2.65 mg, calcium chloride dehydrate 29.81 mg, iron sulphate heptahydrate 19.88 mg, and boric acid.
20 ml cultures (2.7 gdcw/L) in corn test medium were transferred to flasks that contained 0.0%, 0.5%, 1.0%, 1.5%, 1.75% or 2.0% isobutanol. Time of addition of cells was referred to as 0 hours. At various times, samples (1.5 ml) were withdrawn and centrifuged at 10,000 rpm for 2 minutes in a microfuge (Sorvall Biofuge pico). The supernatant was filtered through a 0.2 μm filter (Pall Life Sciences, Port Washington, N.Y.) Pall GHP Acrodisc 13 mm Syringe Filter with 0.2 μm GHP Membrane), the filtrate was diluted ten-fold, and the glucose concentration was determined using a YSI Glucose Analyzer (YSI 2700 Select; YSI, Inc., Yellow Springs, Ohio).

[2] = Alcohol concentration of cultures after 24 hours by HPLC; type: physicochemical; settings: Example 2 cultures, 30° C.
Method: Saccharomyces cerevisiae BY4743 (ATCC 201390) was plated from a freezer vial onto YPD agar (Teknova, Hollister, Calif.; Cat. #Y1000) and incubated overnight at 30° C. Cells from the YPD plate were inoculated into a 25 ml pre-culture of YPD broth (Teknova; Cat. #Y5000) with an initial OD600 of 0.06 to 0.08. The pre-culture was grown for 7 hours in an aerobic shaker at 30° C. An aliquot of the pre-culture was inoculated into 200 ml of YPD broth, with an initial OD600 of 0.06 to 0.08, and this culture was incubated with aeration at 30° C. for approximately 17 hours. The optical density of the culture was measured, the culture was centrifuged and the cells were resuspended to yield an OD600 of 5 in fresh YPD broth. This is referred to as a high cell density (HCD) culture. […] This is referred to as a low the cell density (LCD) culture. These cultures were incubated at 30° C. with shaking for 30 minutes for an acclimation period. At the end of the 30 minute acclimation period, the OD600 was measured. 5 ml of low or high cell density culture was dispensed to 15 ml conical tubes which contained different concentrations of the alcohol to be tested. […] All samples were filtered with Acrodisc CR PTFE 0.2 μm filters (Pall Life Sciences, Port Washington, N.Y.) and analyzed using a Shodex SH1011 column (8 mm ID×300 mm length; Showa Denko America, Inc., New York, N.Y.) and a Shodex SH-G as a guard column. […]

## CC(C)CO [Isobutanol, isobutanol]
[1]; 5.0 g/L isobutanol
  Glucose utilization rate: 2.4 g/gdcw/h
[1]; 10.0 g/L isobutanol
  Glucose utilization rate: 2.4 g/gdcw/h
[1]; 15.0 g/L isobutanol
  Glucose utilization rate: 1.4 g/gdcw/h
[1]; 17.5 g/L isobutanol
  Glucose utilization rate: 0.9 g/gdcw/h
[1]; 20.0 g/L isobutanol
  Glucose utilization rate: 0.7 g/gdcw/h
[1]; I. orientalis strains, 20 g/l of isobutanol
  sugar consumption rate: 0.7 g/gdw/h
[2]
  alcohol lost during the incubation period: < 0.01%
